25 compounds from PubChem BioAssay (NCI) can be followed below.

Structures are written as SMILES.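 How tested: cells in 96-well plates exposed to compound for 48 hours at five concentrations. TGI: concentration producing complete growth inhibition.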

Assay in all cases: inhibition of tumour cell growth, NCI panel, 48 h
The subject of test [1] is ACHN renal.
The test system of test [2] is KM12 colon.
For test [3], the system named is SF-539 CNS.
Test [4] relates to OVCAR-5 ovarian.
The test system of test [5] is SK-OV-3 ovarian.
Test [6] relates to MDA-MB-435.
In test [7] the test system is NCI-H522 lung.
The test system of test [8] is COLO 205 colon.
Test [9] has as its system CCRF-CEM leukemia.
For test [10], the system named is MCF7 breast.
The test system of test [11] is HCT-15 colon.
The subject of test [12] is A498 renal.
The subject of test [13] is RXF 393 renal.

On to `CC(C)(C)n1c(=O)n2n(c1=O)C1c3cccc4cccc(c34)C2C2c3cccc4cccc(c34)C1n1c(=O)n(C(C)(C)C)c(=O)n12`, for which the TGI in test [1], in test [2], in test [3], in test [4], in test [5] and in test [6] was more than 100 µM in each case. Also, the TGI in test [7], in [8], in test [9], in test [10], in [11] and in test [12] was more than 100 µM each time.
Consider `O=C(O)C12CCC(CC1=O)C2` (configuration not stated), for which the TGI in test [1], in [2], in test [4], in [5], in [6] and in test [7] was more than 100 µM in each case. The TGI in [8], in test [9], in test [10] and in [11] was more than 100 µM throughout.
For `CCCCC1(O)CC2CC1C(C)C2(C)C` (configuration not stated), the TGI in [2], in [3], in test [4], in [5], in test [6] and in [13] was more than 100 µM throughout. The TGI in test [8], in [9], in test [10] and in test [11] was more than 100 µM each time.
In the case of `O=C1C=C(c2ccccc2)O/C1=C\C(=O)c1ccc(Cl)cc1`, the TGI in [1] was 29.7 µM; in test [2] it was 80.5 µM; in test [3] it was more than 100 µM; in test [4], 88 µM; in [5], more than 100 µM; in [6], 29.8 µM. Also, the TGI in test [13] was 32.6 µM; in [7], 44.2 µM; in test [8], 30.8 µM; in test [10], 34.9 µM; in test [11], 35.1 µM; in [12], more than 100 µM.
In the case of `COC(=O)Cn1c(=O)oc2nc(-c3ccccc3)cc(C(F)(F)F)c21`, the TGI in [1], in [2], in test [3], in [4], in [5] and in test [6] was more than 100 µM each time. In addition, the TGI in [13], in [7], in test [8], in test [10], in [11] and in [12] was more than 100 µM throughout.
As to `CC(=O)Oc1ccc2cc(-c3ccc(OC(C)=O)c(OC(C)=O)c3)c(=O)oc2c1`, the TGI is more than 100 µM in test [1]; 61.3 µM in [2]; more than 100 µM in test [3]; more than 100 µM in test [4]; more than 100 µM in test [6]; more than 100 µM in [7]. The TGI in test [8], in test [9], in test [10], in test [11] and in test [12] was more than 100 µM throughout.
`Nc1cc(Cl)ccc1SSc1ccc(Cl)cc1N`: the TGI in test [1] was 21.3 µM; in test [2], 24.6 µM; in test [3], 31.5 µM; in test [4], 30.3 µM; in test [5], more than 100 µM; in test [6], 25.9 µM. For the same compound, the TGI in test [13] was more than 100 µM; in test [7], 23.8 µM; in test [8], 35.9 µM; in test [9], more than 100 µM; in [10], 15.7 µM; in test [11], 8.8 µM.
Take `C=CC1(c2ccc3ccccc3c2)OCC(CC)O1` (configuration not stated): the TGI in [1], in test [2], in test [4], in test [5], in test [6] and in test [13] was more than 100 µM throughout. In addition, the TGI in test [7] is more than 100 µM; in test [8], more than 100 µM; in [9], 73.7 µM; in test [10] it was more than 100 µM; in [11], more than 100 µM.
Take `O=c1[nH]c(=O)n(CCOc2ccc(Cl)cc2)cc1Nc1ccccc1`: the TGI in [1], in test [2], in [4], in test [6], in test [13] and in test [8] was more than 100 µM in each case. The TGI in test [9], in [10], in test [11] and in test [12] was more than 100 µM each time.
As for `C#CCOCn1cc(C)c(=O)[nH]c1=O`, the TGI in test [1], in test [2], in [3], in [4], in [5] and in [8] was more than 100 µM each time. Further, the TGI in test [9], in test [10], in test [11] and in test [12] was more than 100 µM in each case.
Turning to `C=CCCCC1(C)CCNC1=S` (configuration not stated), the TGI in [1], in test [3], in [4], in [5], in test [6] and in [13] was more than 100 µM each time. Besides, the TGI in test [7], in test [8], in test [10], in [11] and in [12] was more than 100 µM in each case.
On to `Cc1cc(S(=O)(=O)NC(=NCCc2ccccc2)NN)c(S)cc1Cl`, for which the TGI in [2] worked out at 66.7 µM; in [3], 51.3 µM; in test [4] it was 36.8 µM; in test [5], 53.7 µM; in test [6] it was 61.1 µM; in test [13], 64.7 µM. The TGI is more than 100 µM in test [7]; more than 100 µM in test [8]; 90.1 µM in test [9]; more than 100 µM in test [10]; 37.9 µM in [11].
With `C/C=C\C(CC(=O)OC)CC(=O)N(CCC1CN(S(=O)(=O)C(F)(F)F)c2ccccc21)Cc1ccc(OC)cc1OC` (configuration not stated), the TGI in [1], in test [2], in test [3], in [4], in [5] and in [6] was more than 100 µM each time. Moreover, the TGI in test [13], in test [7], in test [8], in test [10], in [11] and in test [12] was more than 100 µM throughout.
For `NC(=O)CCC(NC(=O)c1c2ccccc2nc2ccccc12)C(=O)O` (configuration not stated), the TGI in [1], in test [2], in [3], in test [4], in test [5] and in [6] was more than 100 µM throughout. Moreover, the TGI in test [7], in test [8], in test [9], in [10], in test [11] and in test [12] was more than 100 µM in each case.
As to `CC(C)(C)[Si](C)(C)OCC1OC(n2ccc(=O)[nH]c2=O)C(O[Si](C)(C)C(C)(C)C)[C@]12O[C@@H]2CO` (some centres not stated), the TGI came out at 24.2 µM in test [1]; 35 µM in test [2]; 47.7 µM in [3]; 40.6 µM in test [4]; 30.5 µM in test [5]; 35.3 µM in test [6]. Besides, the TGI stood at 29.7 µM in [7]; 42.9 µM in test [8]; 38.2 µM in test [10]; 31.1 µM in [11]; 38.7 µM in test [12].
`S=C1CC(c2ccccc2)Sc2cc(Cl)ccc2N1` (configuration not stated): the TGI in [1] was 27 µM; in test [2] it was more than 100 µM; in test [4], more than 100 µM; in test [5], 19.9 µM; in test [6] it was 30 µM; in [13], 18.1 µM. The TGI in test [7] was 16.9 µM; in test [8] it was more than 100 µM; in test [9] it was 9.33 µM; in test [10] it was 34.8 µM; in test [11], more than 100 µM.
As for `O=S(=O)(c1cc(Cl)ccc1Cl)N1CCN(c2cccc(Cl)c2)CC1`, the TGI in test [1], in test [2], in test [3], in test [4], in test [13] and in test [7] was more than 100 µM throughout. The TGI in [9], in test [10], in test [11] and in [12] was more than 100 µM throughout.
As to `C[N+]12C=CC=C1C(N1CCCC1)c1scc(-c3ccc(F)cc3)c12` (configuration not stated), the TGI in test [2], in [4], in [5], in test [6], in test [13] and in test [7] was more than 100 µM throughout. Also, the TGI in test [8] was 51.3 µM; in test [9], 4.4 µM; in test [10], 88.6 µM; in test [12] it was more than 100 µM.
On to `COC(=O)[C@]12CSC[C@H]1C[C@H](c1cccc3ccccc13)N2`, for which the TGI in [1], in test [2], in test [3], in test [4], in [5] and in [6] was more than 100 µM throughout. In addition, the TGI in test [8], in [9], in test [10], in [11] and in [12] was more than 100 µM in each case.
Regarding `Cc1ccc(C(=O)Oc2ccc(/C=C3\CCC/C(=C\c4ccc(OC(=O)c5ccc(C)cc5)cc4)C3=O)cc2)cc1`, the TGI in test [1], in [2], in [3], in [4], in test [6] and in test [7] was more than 100 µM throughout. For the same compound, the TGI in test [8], in test [9], in test [10] and in test [11] was more than 100 µM each time.
For the compound `COc1ccc2c(c1OC)C(=O)N/C2=C\c1c(CCN(C)C)cc2c(c1OC)OCO2`, the TGI in [1], in [2], in [3], in test [4], in test [5] and in test [6] was more than 100 µM in each case. Moreover, the TGI in test [13] was 84.1 µM; in test [7], more than 100 µM; in test [8], more than 100 µM; in test [9] it was more than 100 µM; in [10], more than 100 µM; in test [11], more than 100 µM.
In the case of `COc1cc(C2c3cc4c(cc3OC(NCCO)C2C)OCO4)cc(OC)c1O` (configuration not stated), the TGI was more than 100 µM in test [2]; 42.2 µM in test [3]; more than 100 µM in test [4]; 6.34 µM in test [6]; more than 100 µM in test [13]; 84.2 µM in test [8]. For the same compound, the TGI in test [10] was more than 100 µM; in [11], 46.9 µM.
In the case of `CCOC(=O)N/N=C(\CC)OCC`, the TGI in test [1], in test [2], in test [3], in [4], in test [5] and in test [13] was more than 100 µM in each case. Also, the TGI in test [7], in [8], in test [9], in test [10] and in [11] was more than 100 µM throughout.
With `Cc1ccc(C(=O)N/N=C(\N=Nc2ccccc2Cl)c2ccc(N(C)C)cc2)cc1`, the TGI in test [1] is 46.1 µM; in [2] it was more than 100 µM; in test [3], more than 100 µM; in [4], more than 100 µM; in test [5] it was more than 100 µM; in test [6], 29.6 µM. The TGI in test [7], in [8], in test [9], in [10] and in [11] was more than 100 µM throughout.
As for `CC(=O)n1[nH]c(=O)n(-c2ccccc2)c1=O`, the TGI in test [1], in test [2], in test [4], in test [5], in [6] and in [13] was more than 100 µM each time. Moreover, the TGI in [7], in test [8], in test [9], in test [10] and in test [11] was more than 100 µM throughout.
